Values joined by “and” are separate entries in the source; they are usually repeats but may differ in a detail not shown here. Identical values can stand only once. Like-named read-outs stand apart in the source and are kept apart here.
Columns and labels:
[1] = tested on: Rhinovirus (HRV-A60), Strain: 2268-CV37; experiment: Antiviral activity of LTX-7 against Rhinovirus: 1 hour incubation, filtration, TCID50 endpoint dilution on HeLaM cells; assay type: cell-based, Human Rhinovirus 60; settings: for % Reduction: as compared to the PBS control; for % Reduction / Log decrease / Rounded %: contact time 1 hour, 1% LTX-7 or 0.25% SDS; for TCID50/ml ± SEM: average virus titre recovered, contact time 1 hour at RT, 1% LTX-7 (w/v) in PBS or 0.25% SDS in PBS; for Log decrease: decrease in infectivity as compared to the PBS control; for Rounded %: rounded % reduction as compared to the PBS control
Description: The Rhinovirus used was from BEI Resources: Rhinovirus (HRV-A60), Strain: 2268-CV37 (BEI Resources Catalogue Number NR-51447).
To test whether LTX-7 has antiviral activity against Rhinovirus, 5×10^5 infectious units of Rhinovirus (40 μl) were incubated with four volumes of 1% LTX-7 (w/v) dissolved in PBS (160 μl) or a PBS (Phosphate-buffered saline) negative control. As a positive control, a buffer containing 0.25% SDS (Sodium dodecyl sulphate) in PBS was tested in parallel. Each sample and the PBS control were tested in triplicates.
(§1) After 1 hour at room temperature (RT), the incubation was stopped by adding an excess of cold assay media (5 ml), and the formulation was physically separated from the virus through a filter (Sartorius VivaSpin 6, 100,000 MWCO, PES (Sartorius, VS0642)) to reduce cytotoxicity on the assay cells. The assay media was DMEM (Gibco 61965-026) supplemented with 2% FBS (Gibco 10500-064), 20 mM Hepes (Gibco 15630-056) and 1× p/s (Gibco 15070063).
The starting solution for the serial dilution (i.e. the neat (or undiluted) solution or 10^0 solution) was obtained by re-suspending the virus that was separated via the filtration step in 1 ml of assay media. […] Appropriate controls were also performed.

HeLaM cells [2] = settings: dilution at which cytotoxicity on HeLaM cells was observed, without virus, after filtration, 1% LTX-7 (w/v) in PBS or 0.25% SDS
Description: A parallel test where the same procedure was carried out in the absence of virus was included to determine any residual cytotoxic effect of LTX-7 on the assay cells.

[3] = tested on: Human Rhinovirus 14, strain 1059; experiment: Antiviral (virucidal) activity of 1% LTX-109 against Human Rhinovirus 14: 1 hour incubation, filtration, TCID50 on HeLaM cells; assay type: cell-based; settings: for TCID50/ml ± SEM: average virus titre recovered, contact time 1 hour at RT, 1% LTX-109 (triplicate) or 2.5% glutaraldehyde in PBS (single replicate); for Log decrease: decrease in infectivity as compared to the PBS control; for Log decrease / % Reduction: contact time 1 hour, 1% LTX-109 or 2.5% glutaraldehyde; for % Reduction: reduction in Rhinovirus 14 infectivity as compared to the PBS control
Description: The virus used was from ATCC: Human Rhinovirus 14, strain 1059 (ATCC VR-284, lot number 70049530).
To test whether 1% LTX-109 has virucidal activity against Human Rhinovirus 14, 4×10^7 infectious units of Human Rhinovirus 14 in 40 μl were incubated with four volumes (160 μl) of 1% LTX-109 or a PBS negative control. As a positive control, a buffer containing 2.5% glutaraldehyde in PBS was tested in parallel. Both LTX-109 and negative control were tested in triplicates. The positive control was tested in a single replicate.
as §1, with “PES)” for “PES (Sartorius, VS0642))”, “10566016)” for “61965-026)”, “10500064),” for “10500-064),”, “HEPES” for “Hepes”, “15630056)” for “15630-056)”, “PenStrep” for “p/s”
Concentrated virus was re-suspended in 1 ml of assay media and infectious virus was quantified through a serial dilution (10^−1 to 10^−8) on a monolayer of HeLaM cells plated the day before at 8,000 cells/100 μl/well. […] Specifically, on a 96 well plate, 225 μl of media were placed in each well of 4 columns (32 wells in total). In the 4 wells of the top row (row A), 25 μl of re-suspended virus was added and mixed. With a multichannel pipette, 25 μl of media was then taken from the 4 wells in row A to the next 4 wells in row B, and then from row B to row C, and so on until row H, creating a serial dilution (10^−1 to 10^−8). 200 μl from each well was then added to separate wells containing a monolayer of HeLa M cells. Appropriate controls were also performed.

Rhinovirus 60, 2268-CV37 [4] = experiment: Antiviral activity of 1% LTX-109 against Rhinovirus: 1 hour incubation, filtration, TCID50 endpoint dilution on HeLa cells; assay type: cell-based, Human Rhinovirus 60; settings: for TCID50/ml ± SEM: average virus titre recovered after 1 hour incubation, 1% LTX-109 (w/v) in PBS or 0.25% SDS, triplicate; for Log decrease: decrease in infectivity as compared to the PBS control; for Log decrease / Percentage: 1 hour; for Log decrease / Log / Percentage: 1% LTX-109 or 0.25% SDS; for Log: log of recovered virus titre after 1 hour incubation; for Percentage: reduction in infectivity as compared to the PBS control
Description: (§2) The Rhinovirus used was from BEI Resources: Rhinovirus 60, 2268-CV37 (Catalogue No. NR-51447).
(§3) To test whether 1% LTX-109 (w/v) has antiviral activity against Rhinovirus, 2.24×10^5 infectious units of Rhinovirus (40 μl) were incubated with four volumes of 1% LTX-109 dissolved in PBS (160 μl), alongside a PBS (Phosphate-buffered saline) control and a 0.25% SDS (Sodium dodecyl sulphate) positive control. The treatments were performed in triplicate.
After 1 hour, the incubation was stopped by adding an excess of media, and the liquid was filtered through a filter (Sartorius VivaSpin 6) to separate the virus in order to reduce cytotoxicity on the assay cells. The assay media was DMEM (Gibco 61965-026) supplemented with 2% FBS (Gibco 10500-064), 20 mM Hepes (Gibco 15630-056) and 1×p/s (Gibco 15070063).
(§4) Appropriate controls were also performed.

Rhinovirus 60, 2268-CV37 [5] = experiment: Antiviral activity of 3% LTX-109 against Rhinovirus: 1 hour incubation, dilution in media, TCID50 endpoint dilution on HeLa cells; assay type: cell-based, Human Rhinovirus 60; settings: for Log decrease: decrease in infectivity as compared to the PBS control; for Log decrease / Percentage: 1 hour; for Log decrease / Log / Percentage: 3% LTX-109 or 0.25% SDS; for Log: log of recovered virus titre after 1 hour incubation; for Percentage: reduction in infectivity as compared to the PBS control
Description: as §2
as §3, with “3%” for “1%”, “9×10^5” for “2.24×10^5”
After 1 hour, the incubation was stopped by adding 50 μl of mixture to 5 ml of media. The assay media was DMEM (Gibco 61965-026) supplemented with 2% FBS (Gibco 10500-064), 20 mM Hepes (Gibco 15630-056) and 1× p/s (Gibco 15070063).
as §4

HeLa cells [6] = settings: dilution at which cytotoxicity on HeLa cells was observed, without virus, after filtration, 1% LTX-109 (w/v) in PBS or 0.25% SDS
Description: Infectious virus was quantified through a serial dilution of the filtrate (a series of ten-fold dilutions) on monolayers of HeLa cells in microtitre plates (HeLa cells are human cells capable of displaying a cytopathic effect (CPE) upon viral infection). For each dilution of the virus in the dilution series, eight wells of the microtitre plate were tested (i.e. each dilution was applied to eight separate wells, each well containing a HeLa cell monolayer). Appropriate controls were also performed. […] The TCID50 (TCID50/ml) assay (Tissue Culture Infectious Dose 50 assay) is a type of endpoint dilution assay that is well known in the art and routinely used to quantitatively measure virus titres. TCID50/ml provides a measure of infectious units of virus/ml. “/ml” refers to /ml of the starting solution (i.e. neat/undiluted solution) mentioned above. A parallel test where the same procedure was carried out in the absence of virus was included to determine any residual cytotoxic effect of the formulation on the assay cells.

HeLa cells [7] = settings: dilution at which cytotoxicity on HeLa cells was observed, without virus, after dilution, 3% LTX-109 (w/v) in PBS or 0.25% SDS
Description: A parallel test where the same procedure was carried out in the absence of virus was included to determine any residual cytotoxic effect of the formulation on the assay cells.

HeLaM cells [8] = experiment: Parallel test without virus: residual cytotoxic effect of LTX-109 on the assay cells (Example 4); settings: dilution at which cytotoxicity on HeLaM cells was observed, after filtration and re-suspension, 1% LTX-109 or 2.5% glutaraldehyde in PBS
Description: A parallel test where the same procedure was carried out in the absence of virus was included to determine any residual cytotoxic effect of LTX-109 on the assay cells.

[9] = listed as POSITIVE CONTROL (SDS), sulphate

Row | Compound | % Reduction [1] [%] | Log decrease [1] [logs] | TCID50/ml ± SEM [3] [TCID50/ml] | Log decrease [3] [logs] | % Reduction [3] [%] | TCID50/ml ± SEM (Rhinovirus 60, 2268-CV37 [4]) | Log decrease (Rhinovirus 60, 2268-CV37 [4]) [logs] | Log (Rhinovirus 60, 2268-CV37 [4]) | Percentage (Rhinovirus 60, 2268-CV37 [4]) [%] | Log decrease (Rhinovirus 60, 2268-CV37 [5]) [logs] | Log (Rhinovirus 60, 2268-CV37 [5]) | Percentage (Rhinovirus 60, 2268-CV37 [5]) [%] | Cytotoxicity (HeLa cells [6]) | Cytotoxicity (HeLa cells [7]) | Cytotoxicity (HeLaM cells [8]) | also measured
1 | N=C(N)NCCCC(N)C(=O)NC(Cc1ccc(-c2ccc3ccccc3c2)cc1)C(=O)NC(CCCNC(=N)N)C(=O)NCCc1ccccc1 (stereo not drawn) [LTX-7, Arg-Phe(4-(2-Naphthyl))-Arg-NH—CH2—CH2-Ph] | 95.791 | 1.33 |  |  |  |  |  |  |  |  |  |  |  |  |  | TCID50/ml ± SEM [1]: 3.86E+03 TCID50/ml and 3.86E+03 ± 1.14E+03 TCID50/ml; Cytotoxicity (HeLaM cells [2]): observed (only) with the neat application and only cytotoxic before any serial dilutions are performed and Neat
2 | CC(C)(C)c1cc(C(C)(C)C)c2[nH]c(C(C)(C)C)c(CC(NC(=O)C(N)CCCNC(=N)N)C(=O)NC(CCCNC(=N)N)C(=O)NCCc3ccccc3)c2c1 (stereo not drawn) [LTX-109] |  |  | 1.80E+06 | 1.05 | 91.2 | 4.8E+03 TCID50/ml and 4.80E+03 ± 8.21E+02 TCID50/ml | 1.9 | 3.7 | 98.89 | 1.9 | 2.3 | 98.87 | only cytotoxic before any serial dilutions are performed | only cytotoxic before any serial dilutions are performed | 10^−1 | TCID50/ml ± SEM ([3]; listed as 1% LTX-109): 1.80E+06 (±3.08 ± 05) TCID50/ml; % Reduction ([3]; listed as 1% LTX-109): 91.2% and 91.17%; Cytotoxicity (HeLa cells [6]; listed as 1% LTX-109): observed (only) with the neat application and Neat; Cytotoxicity (HeLa cells [7]; listed as 3% LTX-109): Neat; Cytotoxicity (HeLa cells [7]; listed as 3% formulation): observed (only) with the neat application
3 | O=CCCCC=O [Positive Control, glutaraldehyde, reference compound] |  |  | 3.75E+01 | 5.74 | 99.9998 |  |  |  |  |  |  |  |  |  | Neat | % Reduction ([3]; listed as 2.5% glutaraldehyde in PBS): ~99.9%
4 | CCCCCCCCCCCCOS(=O)(=O)[O-].[Na+] [SDS, Sodium dodecyl sulphate, reference compound] | 99.983 | 3.67 |  |  |  | 1.00E+02 TCID50/ml | 3.6 | 2.0 | 99.98 | 3.0 | 1.2 | 99.91 | Neat | Neat |  | TCID50/ml ± SEM [1, 9]: 1.58E+01 (SEM ND) TCID50/ml; TCID50/ml ± SEM ([1]; sulphate): 1.58E+01 TCID50/ml; Rounded % [1, 9]: 99.9%; Rounded % ([1]; sulphate): ~99.9%; TCID50/ml ± SEM (Rhinovirus 60, 2268-CV37 [5]; average virus titre recovered after 1 hour incubation, 3% LTX-109 (w/v) in PBS or 0.25% SDS, triplicate): 1.58E+01 TCID50/ml; Cytotoxicity (HeLaM cells [2]; [9]): Neat; Cytotoxicity (HeLaM cells [2]; sulphate): observed (only) with the neat application

— patent US20240390451A1, “MODIFIED TRIPEPTIDES FOR USE IN THE TREATMENT OF A NON-ENVELOPED VIRUS INFECTION” (PHARMA HOLDINGS AS, priority 2021, published 2024)
